Measured values taken from patent US9695205B2, “Amide compounds for treatment of complement mediated disorders” (Achillion Pharmaceuticals, Inc., priority 2014, dated 2017).

Target: Human factor D (Homo sapiens (Human), UniProt P00746)
Assay: Human Factor D Assay
Assay type: biochemical
Conditions: Human factor D 80 nM, substrate Z-L-Lys-SBzl and DTNB 100 μM each, pH 7.5
Protocol: Example 14. Human Factor D Assay
Human factor D (purified from human serum, Complement Technology, Inc.) at 80 nM final concentration is incubated with test compound at various concentrations for 5 minutes at room temperature in 50 mM Tris, 1M NaCl, pH 7.5. A synthetic substrate Z-L-Lys-SBzl and DTNB (Ellman's reagent) are added to final concentrations of 100 μM each. The increase in color is recorded at OD405 nm in a microplate in kinetic mode over 30 minutes with 30 second time points in a spectrofluorimeter. IC50 values are calculated by non-linear regression from the percentage of inhibition of complement factor D activity as a function of test compound concentration.

Sequence of Human factor D (P00746 26-253): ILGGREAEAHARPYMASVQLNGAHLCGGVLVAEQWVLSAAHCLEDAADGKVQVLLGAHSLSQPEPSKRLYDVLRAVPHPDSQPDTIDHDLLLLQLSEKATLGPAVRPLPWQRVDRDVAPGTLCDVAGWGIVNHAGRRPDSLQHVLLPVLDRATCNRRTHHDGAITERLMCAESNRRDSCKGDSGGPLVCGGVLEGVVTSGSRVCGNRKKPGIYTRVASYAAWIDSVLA

Row | SMILES | IC50 [nM]
1 | CC(=O)c1cn(CC(=O)N2C[C@H](F)C[C@H]2C(=O)NCc2cccc(Cl)c2F)c2cc(C(=O)N[C@H]3CCN(C(=O)OC(C)(C)C)C3)ccc12 [Compound 44, (S)-tert-butyl 3-(3-acetyl-1-(2-((2S,4R)-2-(3-chloro-2-fluorobenzylcarbamoyl)-4-fluoropyrrolidin-1-yl)-2-oxoethyl)-1H-indole-6-carboxamido) pyrrolidine-1-carboxylate] | < 1000
2 | CC(=O)c1cn(CC(=O)N2C[C@H](F)C[C@H]2C(=O)NCc2cccc(Cl)c2F)c2ccc(NC(=O)N3CCCC3)cc12 [Compound 9, N-(3-acetyl-1-(2-((2S,4R)-2-(3-chloro-2-fluorobenzylcarbamoyl)-4-fluoropyrrolidin-1-yl)-2-oxoethyl)-1H-indol-5-yl)pyrrolidine-1-carboxamide] | < 1000
3 | NC(=O)c1nn(CC(=O)N2C[C@H](F)C[C@H]2C(=O)Nc2cccc(OC(F)(F)F)c2F)c2ccc(NC(=O)N3CCCC(F)(F)C3)cc12 [Compound 26, 5-(3,3-difluoropiperidine-1-carboxamido)-1-(2-((2S,4R)-4-fluoro-2-(2-fluoro-3-(trifluoromethoxy)phenylcarbamoyl)pyrrolidin-1-yl)-2-oxoethyl)-1H-indazole-3-carboxaide] | < 1000
4 | CC(=O)c1cn(CC(=O)N2C[C@H](F)C[C@H]2C(=O)Nc2cccc(-c3ccccc3Cl)c2F)c2ccc(NC(=O)CC(F)(F)F)cc12 [Compound 36, (2S,4R)-1-(2-(3-acetyl-5-(3,3,3-trifluoropropanamido)-1H-indol-1-yl)acetyl)-N-(2′-chloro-2-fluorobiphenyl-3-yl)-4-fluoropyrrolidine-2-carboxamide] | < 1000
5 | CC(=O)c1cn(CC(=O)N2C[C@H](F)C[C@H]2C(=O)NCc2cccc(Cl)c2F)c2ccc(NC(=O)NCC(F)(F)F)cc12 [Compound 21, (2S,4R)-1-(2-(3-acetyl-5-(3-(2,2,2-trifluoroethyl)ureido)-1H-indol-1-yl)acetyl)-N-(3-chloro-2-fluorobenzyl)-4-fluoropyrrolidine-2-carboxamide] | < 1000
6 | NC(=O)c1nn(CC(=O)N2C[C@H](F)C[C@H]2C(=O)Nc2cccc(OC(F)(F)F)c2F)c2ccc(NC(=O)Nc3ccon3)cc12 [Compound 25, 1-(2-((2S,4R)-4-fluoro-2-(2-fluoro-3-(trifluoromethoxy)phenylcarbamoyl)pyrrolidin-1-yl)-2-oxoethyl)-5-(3-isoxazol-3-ylureido)-1H-indazole-3-carboxamide] | < 1000
7 | CC(=O)c1cn(CC(=O)N2C[C@H](F)C[C@H]2C(=O)NCc2cccc(Cl)c2F)c2cc(C(=O)NS(=O)(=O)c3ccccc3)ccc12 [Compound 53] | < 1000
8 | CC(=O)c1cn(CC(=O)N2C[C@H](F)C[C@H]2C(=O)NCc2cccc(Cl)c2F)c2ccc(C(=O)N3CC4CCC3C4)cc12 (stereo partly drawn) [Compound 39, (2S,4R)-1-(2-(3-acetyl-5-(2-azabicyclo[2.2.1]heptane-2-carbonyl)-1H-indol-1-yl)acetyl)-N-(3-chloro-2-fluorobenzyl)-4-fluoropyrrolidine-2-carboxamide] | < 1000
9 | CC(=O)c1cn(CC(=O)N2C[C@H](F)C[C@H]2C(=O)Nc2cccc(C(F)(F)F)n2)c2ccc(NC(=O)N3CCCC(F)(F)C3)cc12 [Compound 20, N-(3-acetyl-1-(2-((2S,4R)-4-fluoro-2-(6-(trifluoromethyl)pyridin-2-ylcarbamoyl)pyrrolidin-1-yl)-2-oxoethyl)-1H-indol-5-yl)-3,3-difluoropiperidine-1-carboxamide] | < 1000
10 | CC(=O)c1cn(CC(=O)N2C[C@H](F)C[C@H]2C(=O)NCc2cccc(Cl)c2F)c2ccc(NC(=O)NCc3ccon3)cc12 [Compound 7, (2S,4R)-1-(2-(3-acetyl-5-(3-(isoxazol-3-ylmethyl)ureido)-1H-indol-1-yl)acetyl)-N-(3-chloro-2-fluorobenzyl)-4-fluoropyrrolidine-2-carboxamide] | < 1000
11 | CC(=O)c1cn(CC(=O)N2C[C@H](F)C[C@H]2C(=O)NCc2cccc(Cl)c2F)c2ccc(NC(=O)N3Cc4cncnc4C3)cc12 [Compound 22, N-(3-acetyl-1-(2-((2S,4R)-2-(3-chloro-2-fluorobenzylcarbamoyl)-4-fluoropyrrolidin-1-yl)-2-oxoethyl)-1H-indol-5-yl)-5H-pyrrolo[3,4-d]pyrimidine-6(7H)-carboxamide] | < 1000
12 | CC(=O)c1cn(CC(=O)N2C[C@H](F)C[C@H]2C(=O)NCc2cccc(Cl)c2F)c2ccc(C(=O)N3CC=C(B(O)O)CC3)cc12 [Compound 38, 1-(3-acetyl-1-(2-((2S,4R)-2-(3-chloro-2-fluorobenzylcarbamoyl)-4-fluoropyrrolidin-1-yl)-2-oxoethyl)-1H-indole-5-carbonyl)-1,2,3,6-tetrahydropyridin-4-ylboronic acid] | < 1000
13 | CC(=O)c1cn(CC(=O)N2C[C@H](F)C[C@H]2C(=O)NCc2cccc(Cl)c2F)c2cc(C(=O)NCC3CCNC3)ccc12 (stereo partly drawn) [Compound 49, 3-acetyl-1-(2-((2S,4R)-2-(3-chloro-2-fluorobenzylcarbamoyl)-4-fluoropyrrolidin-1-yl)-2-oxoethyl)-N-(pyrrolidin-3-ylmethyl)-1H-indole-6-carboxamide] | < 1000
14 | CC(=O)c1cn(CC(=O)N2C[C@H](F)C[C@H]2C(=O)NCc2cccc(Cl)c2F)c2ccc(NC(=O)OCC3CC3)cc12 [Compound 15, cyclopropylmethyl 3-acetyl-1-(2-((2S,4R)-2-(3-chloro-2-fluorobenzylcarbamoyl)-4-fluoropyrrolidin-1-yl)-2-oxoethyl)-1H-indol-5-ylcarbamate] | < 1000
15 | CC(=O)c1cn(CC(=O)N2C[C@H](F)C[C@H]2C(=O)NCc2cccc(Cl)c2F)c2cc(C(=O)NCC3CCN(C(=O)OC(C)(C)C)C3)ccc12 (stereo partly drawn) [Compound 50] | < 1000
16 | NC(=O)c1nn(CC(=O)N2C[C@H](F)C[C@H]2C(=O)Nc2cccc(-c3ccccc3Cl)c2F)c2ccc(NC(=O)NCc3ncccn3)cc12 [Compound 32, 1-(2-((2S,4R)-2-(2′-chloro-2-fluorobiphenyl-3-ylcarbamoyl)-4-fluoropyrrolidin-1-yl)-2-oxoethyl)-5-(3-(pyrimidin-2-ylmethyl)ureido)-1H-indazole-3-carboxamide] | < 1000
17 | NC(=O)c1nn(CC(=O)N2C[C@H](F)C[C@H]2C(=O)Nc2cccc(-c3ccccc3Cl)c2F)c2ccc(NC(=O)N3CCC(F)(F)CC3)cc12 [Compound 31, 1-(2-((2S,4R)-2-(2′-chloro-2-fluorobiphenyl-3-ylcarbamoyl)-4-fluoropyrrolidin-1-yl)-2-oxoethyl)-5-(4,4-difluoropiperidine-1-carboxamido)-1H-indazole-3-carboxamide] | < 1000
18 | CC(=O)c1cn(CC(=O)N2C[C@H](F)C[C@H]2C(=O)NCc2cccc(Cl)c2F)c2ccc(NC(=O)Nc3cncnc3)cc12 [Compound 23, (2S,4R)-1-(2-(3-acetyl-5-(3-pyrimidin-5-ylureido)-1H-indol-1-yl)acetyl)-N-(3-chloro-2-fluorobenzyl)-4-fluoropyrrolidine-2-carboxamide] | < 1000
19 | CC(=O)c1cn(CC(=O)N2C[C@H](F)C[C@H]2C(=O)NCc2cccc(Cl)c2F)c2ccc(NC(=O)NCc3ncccn3)cc12 [Compound 8, (2S,4R)-1-(2-(3-acetyl-5-(3-(pyrimidin-2-ylmethyl)ureido)-1H-indol-1-yl)acetyl)-N-(3-chloro-2-fluorobenzyl)-4-fluoropyrrolidine-2-carboxamide] | < 1000
20 | CC(=O)c1cn(CC(=O)N2C[C@H](F)C[C@H]2C(=O)NCc2cccc(Cl)c2F)c2cc(NC(=O)OC(C)(C)C)ccc12 [Compound 37, tert-butyl 3-acetyl-1-(2-((2S,4R)-2-(3-chloro-2-fluorobenzylcarbamoyl)-4-fluoropyrrolidin-1-yl)-2-oxoethyl)-1H-indol-6-ylcarbamate] | < 1000
21 | NC(=O)c1nn(CC(=O)N2[C@@H]3C[C@@H]3C[C@H]2C(=O)Nc2cccc(OC(F)(F)F)c2F)c2ccc(NC(=O)N3CCCC(F)(F)C3)cc12 [Compound 27, 5-(3,3-difluoropiperidine-1-carboxamido)-1-(2-((1R,3S,5R)-3-(2-fluoro-3-(trifluoromethoxy)phenylcarbamoyl)-2-azabicyclo[3.1.0]hexan-2-yl)-2-oxoethyl)-1H-indazole-3-carboxamide] | < 1000
22 | NC(=O)c1nn(CC(=O)N2[C@@H]3C[C@@H]3C[C@H]2C(=O)Nc2cccc(-c3ccccc3Cl)c2F)c2ccc(NC(=O)N3CCCC(F)(F)C3)cc12 [Compound 28, 1-(2-((1R,3S,5R)-3-(2′-chloro-2-fluorobiphenyl-3-ylcarbamoyl)-2-azabicyclo[3.1.0]hexan-2-yl)-2-oxoethyl)-5-(3,3-difluoropiperidine-1-carboxamido)-1H-indazole-3-carboxamide] | < 1000
23 | CC(=O)c1cn(CC(=O)N2C[C@H](F)C[C@H]2C(=O)Nc2cccc(OC(F)(F)F)c2F)c2ccc(NC(=O)NC3CC3)cc12 [Compound 10, (2S,4R)-1-(2-(3-acetyl-5-(3-cyclopropylureido)-1H-indol-1-yl)acetyl)-4-fluoro-N-(2-fluoro-3-(trifluoromethoxy)phenyl) pyrrolidine-2-carboxamide] | < 1000
24 | NC(=O)c1nn(CC(=O)N2[C@@H]3C[C@@H]3C[C@H]2C(=O)Nc2cccc(Br)n2)c2ccc(NC(=O)N3CCCC(F)(F)C3)cc12 [Compound 34, 1-(2-((1R,3S,5R)-3-(6-bromopyridin-2-ylcarbamoyl)-2-azabicyclo[3.1.0]hexan-2-yl)-2-oxoethyl)-5-(3,3-difluoropiperidine-1-carboxamido)-1H-indazole-3-carboxamide] | < 1000
